This passage reports IC50 results from patent US20250163104A1, “MACROCYCLIC IMMUNOMODULATORS” (priority 2021, published 2025).

Where a SMILES comes first, the peptide text is derived from it. Bridges are numbered along the chain shown (N, C = ends). [ ]: non-standard residue; d: D form. The star is where a group is joined. Ala(1H-tetrazol-5-yl) = N[C@@H](Cc1nnn[nH]1)C(=O)O; Phe(4-COOH) = N[C@@H](Cc1ccc(C(=O)O)cc1)C(=O)O; Phe(2-CF3) = N[C@@H](Cc1ccccc1C(F)(F)F)C(=O)O; Phe(3,5-F2) = N[C@@H](Cc1cc(F)cc(F)c1)C(=O)O; Bip = N[C@@H](Cc1ccc(-c2ccccc2)cc1)C(=O)O; Phe(4-CN) = N#Cc1ccc(C[C@H](N)C(=O)O)cc1; Phe(3-Me) = Cc1cccc(C[C@H](N)C(=O)O)c1; Phe(2-F) = N[C@@H](Cc1ccccc1F)C(=O)O; Val(3-OH) = CC(C)(O)[C@H](N)C(=O)O; 3Pal = N[C@@H](Cc1cccnc1)C(=O)O; 4Pal = N[C@@H](Cc1ccncc1)C(=O)O; Cha = N[C@@H](CC1CCCCC1)C(=O)O; Cit = NC(=O)NCCC[C@H](N)C(=O)O; Hpra = C#CCC[C@H](N)C(=O)O; Carboxymethyl = O=C(O)C*; Nle = CCCC[C@H](N)C(=O)O; Orn = NCCC[C@H](N)C(=O)O; Pra = C#CC[C@H](N)C(=O)O; Dab = NCC[C@H](N)C(=O)O; Nva = CCC[C@H](N)C(=O)O; Dap = NC[C@H](N)C(=O)O

For the experiment, the target named is T1, human PD-1 / PD-L1-Ig binding on Jurkat cell line over-expressing human PD-1 (Jurkat-PD-1) (Homo sapiens, UniProt Q15116).
T1 construct: expressed in transfected cells; host or cells: Jurkat
Nature of the experiment: Jurkat-PD-1 Cell Binding High-Content Screening Assay (CBA). The format is cell-based. As to conditions: Jurkat-PD-1 cells, PE-labeled PD-L1-Ig 20 nM final; read-out: Jurkat HPD1_PDL1 IC50. The method, boiled down: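 Cell-bound PE-labeled PD-L1-Ig (20 nM final, 1 h) measured by high-content imaging after fixation and Hoechst 33342 counterstain. Compound was applied first for 2 h at 37° C. to Jurkat cells over-expressing human PD-1 in DMEM with 10% FCS.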

T1 sequence (Q15116 25-288): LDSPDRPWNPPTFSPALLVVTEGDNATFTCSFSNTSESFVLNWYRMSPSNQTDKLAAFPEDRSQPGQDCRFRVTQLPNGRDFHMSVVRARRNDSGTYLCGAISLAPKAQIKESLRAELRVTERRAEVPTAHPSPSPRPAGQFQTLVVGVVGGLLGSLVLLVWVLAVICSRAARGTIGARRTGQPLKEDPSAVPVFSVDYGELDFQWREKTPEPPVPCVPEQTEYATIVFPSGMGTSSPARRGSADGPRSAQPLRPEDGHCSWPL

By IC50 is commonly meant the midpoint of a concentration-inhibition curve. `Cc1cccc(C[C@@H]2NC(=O)[C@H](Cc3nn[nH]n3)NC(=O)[C@H](Cc3ccc(OCC(=O)O)cc3)NC(=O)[C@H](CN)NC(=O)CSC[C@@H](C(=O)NCC(N)=O)NC(=O)[C@H](CO)NC(=O)[C@H](C(C)C)NC(=O)[C@H](CC(C)C)NC(=O)[C@H](CC(N)=O)NC(=O)[C@@H](CC(C)C)NC(=O)[C@H](CN)NC(=O)[C@H](C(C)C)NC(=O)[C@H](Cc3ccc(-c4ccccc4)cc3)NC(=O)[C@H](CC(C)C)NC2=O)c1` [Compound 1273] ({CH2CO}-[Dap]Y(Carboxymethyl)[Ala(1H-tetrazol-5-yl)][Phe(3-Me)]L[Bip]V[Dap][dL]NLVSCG-NH2; thioether N-14): the IC50 stood at 54.8 nM.

Take `C#CC[C@H](NC(=O)[C@H](CCN)NC(=O)[C@@H]1CSCC(=O)N[C@@H](CCC)C(=O)N[C@@H](Cc2ccc(OCC(=O)O)cc2)C(=O)N[C@@H](CC(=O)O)C(=O)N[C@@H](Cc2cccc(C)c2)C(=O)N[C@@H](Cc2ccc(C(=O)O)cc2)C(=O)N[C@@H](Cc2ccc(-c3ccccc3)cc2)C(=O)N[C@@H](Cc2ccc(C(=O)O)cc2)C(=O)N[C@@H](CCCN)C(=O)N[C@H](CC(C)C)C(=O)N[C@@H](CCN)C(=O)N[C@@H](CC2CCCCC2)C(=O)N[C@@H](C(C)C)C(=O)N[C@@H](CCC(=O)O)C(=O)N1)C(=O)O` [Compound 1822] ({CH2CO}-[Nva]Y(Carboxymethyl)D[Phe(3-Me)][Phe(4-COOH)][Bip][Phe(4-COOH)][Orn][dL][Dab][Cha]VEC[Dab][Pra]-OH; thioether N-14): the 50% inhibitory concentration (IC50) is 5.8 nM.

For `C#CC[C@H](NC(=O)[C@H](C)NC(=O)[C@@H]1CSCC(=O)N[C@@H](CCN)C(=O)N[C@@H](Cc2ccc(OCC(=O)O)cc2)C(=O)N[C@@H](CC(=O)O)C(=O)N[C@@H](Cc2cccc(C)c2)C(=O)N[C@@H](Cc2ccc(OCC(=O)O)cc2)C(=O)N[C@@H](Cc2ccc(-c3ccccc3)cc2)C(=O)N[C@@H](Cc2ccc(OCC(=O)O)cc2)C(=O)N[C@@H](CCCN)C(=O)N[C@H](CC(C)C)C(=O)N[C@@H](CCN)C(=O)N[C@@H](CC2CCCCC2)C(=O)N[C@@H](C(C)(C)O)C(=O)N[C@@H](CCC)C(=O)N1)C(=O)O` [Compound 2697] ({CH2CO}-[Dab]Y(Carboxymethyl)D[Phe(3-Me)]Y(Carboxymethyl)[Bip]Y(Carboxymethyl)[Orn][dL][Dab][Cha][Val(3-OH)][Nva]CA[Pra]-OH; thioether N-14), the 50% inhibitory concentration (IC50) was found to be 26.2 nM.

In the case of `Cc1cccc(C[C@@H]2NC(=O)[C@H](CC(=O)O)NC(=O)[C@H](Cc3ccc(C(=O)O)cc3)NC(=O)[C@H](Cc3ccncc3)NC(=O)CSC[C@@H](C(=O)N[C@@H](CCN)C(N)=O)NC(=O)[C@H](CCC(=O)O)NC(=O)[C@H](C(C)(C)O)NC(=O)[C@H](CC3CCCCC3)NC(=O)[C@H](CCN)NC(=O)[C@@H](CC(C)C)NC(=O)[C@H](CCCN)NC(=O)[C@H](Cc3ccc(OCC(=O)O)cc3)NC(=O)[C@H](Cc3ccc(-c4ccccc4)cc3)NC(=O)[C@H](Cc3ccc(OCC(=O)O)cc3)NC2=O)c1` [Compound 2330] ({CH2CO}-[4Pal][Phe(4-COOH)]D[Phe(3-Me)]Y(Carboxymethyl)[Bip]Y(Carboxymethyl)[Orn][dL][Dab][Cha][Val(3-OH)]EC[Dab]-NH2; thioether N-14), the concentration for half-maximal inhibition (IC50) worked out at 249 nM.

Consider `C#CCC[C@@H]1NC(=O)[C@H](Cc2ccc(-c3ccccc3)cc2)NC(=O)[C@H](C(C)C)NC(=O)[C@H](Cc2cccc(C)c2)NC(=O)[C@H](CC(=O)O)NC(=O)[C@H](Cc2ccc(C(=O)O)cc2)NC(=O)[C@H](CN)NC(=O)CSC[C@@H](C(=O)N[C@@H](CCN)C(N)=O)NC(=O)[C@H]([C@@H](C)O)NC(=O)[C@H](C(C)C)NC(=O)[C@H](CC2CCCCC2)NC(=O)[C@H](CCN)NC(=O)[C@@H](CC(C)C)NC(=O)[C@H](CCCN)NC1=O` [Compound 2023] ({CH2CO}-[Dap][Phe(4-COOH)]D[Phe(3-Me)]V[Bip][Hpra][Orn][dL][Dab][Cha]VTC[Dab]-NH2; thioether N-14), for which the IC50 is 11.4 nM.

As for `CC(C)C[C@H]1NC(=O)[C@H](CCCN)NC(=O)[C@H](CCC(=O)O)NC(=O)[C@H](Cc2ccc(-c3ccccc3)cc2)NC(=O)[C@H](C(C)C)NC(=O)[C@H](Cc2ccccc2F)NC(=O)[C@H](CC(=O)O)NC(=O)[C@H](Cc2ccc(C#N)cc2)NC(=O)[C@H](CC(N)=O)NC(=O)CSC[C@@H](C(=O)N[C@@H](C)C(N)=O)NC(=O)[C@H]([C@@H](C)O)NC(=O)[C@H](C(C)C)NC(=O)[C@H](CC2CCCCC2)NC(=O)[C@H](CCN)NC1=O` [Compound 2212] ({CH2CO}-N[Phe(4-CN)]D[Phe(2-F)]V[Bip]E[Orn][dL][Dab][Cha]VTCA-NH2; thioether N-14), the half-maximal inhibitory concentration (IC50) is 37.6 nM.

`CC(C)C[C@H]1NC(=O)[C@H](CCCN)NC(=O)[C@H](CCCNC(N)=O)NC(=O)[C@H](Cc2ccc(-c3ccccc3)cc2)NC(=O)[C@H](C(C)C)NC(=O)[C@H](Cc2c[nH]c3ccccc23)NC(=O)[C@H](CC(=O)O)NC(=O)[C@H](Cc2cc(F)cc(F)c2)NC(=O)[C@H](CN)NC(=O)CSC[C@@H](C(=O)N[C@@H](C)C(N)=O)NC(=O)[C@H]([C@@H](C)O)NC(=O)[C@H](C(C)C)NC(=O)[C@H](CC2CCCCC2)NC(=O)[C@H](CCN)NC1=O` [Compound 2131] ({CH2CO}-[Dap][Phe(3,5-F2)]DWV[Bip][Cit][Orn][dL][Dab][Cha]VTCA-NH2; thioether N-14): the IC50 amounted to 37.2 nM.

Turning to `CC(C)C[C@H]1NC(=O)[C@H](CCCN)NC(=O)[C@H](CCC(=O)O)NC(=O)[C@H](Cc2ccc(-c3ccccc3)cc2)NC(=O)[C@H](C(C)C)NC(=O)[C@H](Cc2c[nH]c3ccccc23)NC(=O)[C@H](CC(=O)O)NC(=O)[C@H](Cc2ccc(OCC(=O)O)cc2)NC(=O)[C@H](CN)NC(=O)CSC[C@@H](C(=O)N[C@@H](C)C(N)=O)NC(=O)[C@H]([C@@H](C)O)NC(=O)[C@H](C(C)C)NC(=O)[C@H](Cc2ccccc2C(F)(F)F)NC(=O)[C@H](CCN)NC1=O` [Compound 1486] ({CH2CO}-[Dap]Y(Carboxymethyl)DWV[Bip]E[Orn][dL][Dab][Phe(2-CF3)]VTCA-NH2; thioether N-14), the half-inhibitory concentration (IC50) came out at 43.7 nM.

In the case of `CC(C)C[C@H]1NC(=O)[C@H](CCCN)NC(=O)[C@H](CCC(=O)O)NC(=O)[C@H](Cc2ccc(-c3ccccc3)cc2)NC(=O)[C@H](C(C)C)NC(=O)[C@H](Cc2c[nH]c3ccccc23)NC(=O)[C@H](CC(=O)O)NC(=O)[C@H](Cc2ccc(C#N)cc2)NC(=O)[C@H](Cc2ccc(OCC(=O)O)cc2)NC(=O)CSC[C@@H](C(=O)N[C@@H](C)C(N)=O)NC(=O)[C@H]([C@@H](C)O)NC(=O)[C@H](C(C)C)NC(=O)[C@H](CC2CCCCC2)NC(=O)[C@H](CCN)NC1=O` [Compound 2188], the half-inhibitory concentration (IC50) was 24.1 nM.

`CCC(C)[C@@H]1NC(=O)[C@H](Cc2ccc(-c3ccccc3)cc2)NC(=O)[C@H](C(C)C)NC(=O)[C@H](Cc2cc(C)ccc2F)NC(=O)[C@H](CC(=O)O)NC(=O)[C@H](Cc2ccc(OCC(=O)O)cc2)NC(=O)[C@H](CN)NC(=O)CSC[C@@H](C(=O)N[C@@H](C)C(N)=O)NC(=O)[C@H]([C@@H](C)O)NC(=O)[C@H](C(C)C)NC(=O)[C@H](CC2CCCCC2)NC(=O)[C@H](CCN)NC(=O)[C@@H](CC(C)C)NC(=O)[C@H](CCCN)NC1=O` (some centres unmarked) [Compound 2247]: the IC50 was 13.3 nM.

Regarding `CC(C)C[C@H]1NC(=O)[C@H](CCCN)NC(=O)[C@H](CCC(=O)O)NC(=O)[C@H](Cc2ccc(-c3ccccc3)cc2)NC(=O)[C@H](C(C)C)NC(=O)[C@H](Cc2c[nH]c3ccccc23)NC(=O)[C@H](CC(=O)O)NC(=O)[C@H](Cc2cccnc2)NC(=O)[C@H](Cc2ccccc2)NC(=O)CSC[C@@H](C(=O)N[C@@H](C)C(N)=O)NC(=O)[C@H]([C@@H](C)O)NC(=O)[C@H](C(C)C)NC(=O)[C@H](CC2CCCCC2)NC(=O)[C@H](CCN)NC1=O` [Compound 2171] ({CH2CO}-F[3Pal]DWV[Bip]E[Orn][dL][Dab][Cha]VTCA-NH2; thioether N-14), the 50% inhibitory concentration (IC50) amounted to 19.1 nM.

Consider `CC(C)[C@@H]1NC(=O)[C@H](Cc2c[nH]c3ccccc23)NC(=O)[C@H](CC(=O)O)NC(=O)[C@H](Cc2ccc(OCC(=O)O)cc2)NC(=O)[C@H](CN)NC(=O)CSC[C@@H](C(=O)N[C@@H](C)C(N)=O)NC(=O)[C@H]([C@@H](C)O)NC(=O)[C@H](C(C)C)NC(=O)[C@H](CC2CCCCC2)NC(=O)[C@H](CCN)NC(=O)[C@@H](Cc2ccccc2)NC(=O)[C@H](CCCN)NC(=O)[C@H](CCC(=O)O)NC(=O)[C@H](Cc2ccc(-c3ccccc3)cc2)NC1=O` [Compound 1436] ({CH2CO}-[Dap]Y(Carboxymethyl)DWV[Bip]E[Orn][dF][Dab][Cha]VTCA-NH2; thioether N-14), for which the IC50 was determined as 22.8 nM.

With `CCCC[C@@H]1NC(=O)[C@H](CCCNC(=N)N)NC(=O)[C@@H](CC(C)C)NC(=O)[C@H](CCCN)NC(=O)[C@H]([C@@H](C)CC)NC(=O)[C@H](Cc2ccc(-c3ccccc3)cc2)NC(=O)[C@H](C(C)C)NC(=O)[C@H](Cc2c[nH]c3ccccc23)NC(=O)[C@H](CC(=O)O)NC(=O)[C@H](Cc2ccc(O)cc2)NC(=O)[C@H](Cc2ccccc2)NC(=O)CSC[C@@H](C(=O)N[C@@H](C)C(N)=O)NC(=O)[C@H]([C@@H](C)O)NC(=O)[C@H](C(C)C)NC1=O` [Compound 1152] ({CH2CO}-FYDWV[Bip]I[Orn][dL]R[Nle]VTCA-NH2; thioether N-14), the 50% inhibitory concentration (IC50) was 64.7 nM.

Regarding `CCCC[C@@H]1NC(=O)[C@H](CC(N)=O)NC(=O)[C@@H](CC(C)C)NC(=O)[C@H](CN)NC(=O)[C@H](C(C)C)NC(=O)[C@H](Cc2ccc(-c3ccccc3)cc2)NC(=O)[C@H](CC(C)C)NC(=O)[C@H](Cc2c[nH]c3ccccc23)NC(=O)[C@H](CC(=O)O)NC(=O)[C@H](Cc2ccc(C(=O)O)cc2)NC(=O)[C@H](Cc2ccc(OCC(=O)O)cc2)NC(=O)CSC[C@@H](C(=O)NCC(N)=O)NC(=O)[C@H](CO)NC(=O)[C@H](C(C)C)NC1=O` [Compound 1398] ({CH2CO}-Y(Carboxymethyl)[Phe(4-COOH)]DWL[Bip]V[Dap][dL]N[Nle]VSCG-NH2; thioether N-14), the half-inhibitory concentration (IC50) turned out to be 23.7 nM.
